From US11453666B2, “Autotaxin inhibitory compounds” (Cancer Research Technology Limited, priority 2015, dated 2022)
Like-named read-outs stand apart in the source and are kept apart here.

Target: human recombinant ATX (Homo sapiens, UniProt Q13822)
Test: Autotaxin (ATX) activity Quanta Red assay
Format: biochemical
Method in brief: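 Recombinant human ATX reaction stopped after 2 h with Quanta Red stop solution; fluorescence read at […]. Controls with DMSO, with and without ATX; IC50 in duplicate.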

[1] = human recombinant ATX 0.8 μg/mL, 2 hours at room temperature, IC50 determined in duplicate, read-out: Activity (ATX activity, Quanta Red assay; IC50)
[2] = read-out: Activity (ATX activity, Quanta Red assay; IC50)

With `C[C@H](NC(=O)NCc1nc2cccnc2n1Cc1ccc(F)cc1)c1ccc(Cl)cc1` [Example 157, 1-[(S)-1-(4-Chloro-phenyl)-ethyl]-3-[3-(4-fluoro-benzyl)-3H-imidazo[4,5-b]pyridin-2-ylmethyl]-urea] the IC50 [1] was 10 nM.
Compound `C[C@H](NC(=O)CCc1nc2cccnc2n1Cc1ccc(OC(F)(F)F)cc1)c1ccc(NC2CCN(C)CC2)cc1` [Example 173, N-{(S)-1-[4-(1-Methyl-piperidin-4-ylamino)-phenyl]-ethyl}-3-[3-(4-trifluoromethoxy-benzyl)-3H-imidazo[4,5-b]pyridin-2-yl]-propionamide] has an IC50 [2] of 3 nM.
`COc1ccc(CNC(=O)CCc2nc3cc(C)cnc3n2Cc2ccc(OC(F)(F)F)cc2)cc1F` [Example 52, N-(3-Fluoro-4-methoxy-benzyl)-3-[6-methyl-3-(4-trifluoromethoxy-benzyl)-3H-imidazo[4,5-b]pyridin-2-yl]-propionamide] showed an IC50 [2] of 29 nM.
With `C[C@H](NC(=O)CCc1nc2cccnc2n1Cc1ccc(Br)cc1)c1ccc(F)cc1` [Example 16, 3-[3-(4-Bromo-benzyl)-3H-imidazo[4,5-b]pyridin-2-yl]-N-[(S)-1-(4-fluoro-phenyl)-ethyl]-propionamide] the IC50 [2] was 3 nM.
`C[C@H](NC(=O)NCc1nc2cccnc2n1Cc1ccc(F)c(F)c1)c1ccc(N2CCOCC2)cc1` [Example 163, 1-[3-(3,4-Difluoro-benzyl)-3H-imidazo[4,5-b]pyridin-2-ylmethyl]-3-[(S)-1-(4-morpholin-4-yl-phenyl)-ethyl]-urea] gave an IC50 [2] of 309 nM.
Work on `C[C@H](NC(=O)CSc1nc2cccnc2n1Cc1ccc(OC(F)(F)F)cc1)c1ccc(F)cc1` [Example 145, N—[(S)-1-(4-fluoro-phenyl)-ethyl]-2-[3-(4-trifluoromethoxy-benzyl)-3H-imidazo[4,5-b]pyridin-2-ylsulfanyl]-acetamide] yielded an IC50 [1] of 2 nM.
In the case of `COc1cc(OC(F)(F)F)ccc1CNC(=O)CCc1nc2cccnc2n1Cc1ccc(F)c(F)c1` [Example 74, 3-[3-(3,4-Difluoro-benzyl)-3H-imidazo[4,5-b]pyridin-2-yl]-N-(2-methoxy-4-trifluoromethoxy-benzyl)-propionamide], the IC50 [2] is reported as 339 nM.
`C[C@H](NC(=O)CCc1nc2cccnc2n1Cc1ccc(OC(F)(F)F)cc1)c1ccc(F)cc1` [Example 13, N-[(S)-1-(4-Fluoro-phenyl)-ethyl]-3-[3-(4-trifluoromethoxy-benzyl)-3H-imidazo[4,5-b]pyridin-2-yl]-propionamide] showed an IC50 [2] of 2 nM.
Compound `COc1ccc(CNC(=O)CCc2nc3cccnc3n2Cc2ccccc2)cc1` [Example 238, 3-(3-Benzyl-3H-imidazo[4,5-b]pyridin-2-yl)-N-(4-methoxy-benzyl)-propionamide, reference compound] has an IC50 (Table 3: commercially available compounds tested for Autotaxin activity (Quanta Red assay), read-out: Activity) of 473 nM.
`CN(C)c1ccc(CNC(=O)CCc2nc3cccnc3n2Cc2ccc(F)c(F)c2)cc1` [Example 63, 3-[3-(3,4-Difluoro-benzyl)-3H-imidazo[4,5-b]pyridin-2-yl]-N-(4-dimethylamino-benzyl)-propionamide] gave an IC50 [2] of 139 nM.
With `COc1ccc(Cn2c(CCC(=O)NCc3ccc4c(ccn4C)c3)nc3cccnc32)cc1` [Example 105, 3-[3-(4-Methoxy-benzyl)-3H-imidazo[4,5-b]pyridin-2-yl]-N-(1-methyl-1H-indol-5-ylmethyl)-propionamide] the IC50 [2] was 88 nM.
`COc1ccc(Cn2c(CCC(=O)N(C)Cc3ccccc3)nc3cccnc32)cc1` [Example 102] was tested, and the IC50 [2] was 568 nM.
In the case of `COc1ccc(Cn2c(CCC(=O)NCCc3ccc(SC)cc3)nc3cccnc32)cc1` [Example 221, 3-[3-(4-Methoxy-benzyl)-3H-imidazo[4,5-b]pyridin-2-yl]-N-[2-(4-methylsulfanyl-phenyl)-ethyl]-propionamide], the IC50 (Table 2: additional compounds tested for ATX activity (Quanta Red Assay), read-out: Activity) is reported as 154 nM.
Work on `CC(C)(C)OC(=O)N1CCC[C@@H](CNC(=O)CCc2nc3cccnc3n2Cc2ccc(OC(F)(F)F)cc2)C1` [Example 54, (S)-3-({3-[3-(4-Trifluoromethoxy-benzyl)-3H-imidazo[4,5-b]pyridin-2-yl]-propionylamino}-methyl)-piperidine-1-carboxylic acid tert-butyl ester] yielded an IC50 [2] of 40 nM.
`O=C(CSc1nc2cccnc2n1Cc1ccc(OC(F)(F)F)cc1)N[C@@H](CO)c1ccccc1` [Example 142, N-((R)-2-Hydroxy-1-phenyl-ethyl)-2-[3-(4-trifluoromethoxy-benzyl)-3H-imidazo[4,5-b]pyridin-2-ylsulfanyl]-acetamide] was tested, and the IC50 [2] was 1 nM.
`C[C@H](NC(=O)CCc1nc2cccnc2n1Cc1ccc(O)cc1)c1ccc(F)cc1` [Example 155, N—[(S)-1-(4-fluoro-phenyl)-ethyl]-3-[3-(4-hydroxy-benzyl)-3H-imidazo[4,5-b]pyridin-2-yl]-propionamide] was tested, and the IC50 [2] was 254 nM.
`CC[C@H](NC(=O)CCc1nc2ccncc2n1Cc1ccc(F)cc1)c1ccccc1` [Example 127, 3-[3-(4-Fluoro-benzyl)-3H-imidazo[4,5-c]pyridin-2-yl]-N-((S)-1-phenyl-propyl)-propionamide] gave an IC50 [2] of 14 nM.
In the case of `O=C(CCc1nc2cccnc2n1Cc1cccs1)N[C@H](Cc1ccccc1)C(=O)O` [Example 202, (R)-3-Phenyl-2-[3-(3-thiophen-2-ylmethyl-3H-imidazo[4,5-b]pyridin-2-yl)-propionylamino]-propionic acid], the IC50 [2] is reported as 819 nM.
Work on `COc1ccc(CNC(=O)CCc2nc3cccnc3n2Cc2cccc(OC(F)(F)F)c2)cc1` [Example 98, N-(4-Methoxy-benzyl)-3-[3-(3-trifluoromethoxy-benzyl)-3H-imidazo[4,5-b]pyridin-2-yl]-propionamide] yielded an IC50 [2] of 45 nM.
`C[C@H](OC(=O)NCc1nc2cccnc2n1Cc1ccc(F)cc1)c1ccc(F)cc1` [Example 164, [3-(4-Fluoro-benzyl)-3H-imidazo[4,5-b]pyridin-2-ylmethyl]-carbamic acid (S)-1-(4-fluoro-phenyl)-ethyl ester] showed an IC50 [1] of 957 nM.
In the case of `O=C(CCc1nc2cccnc2n1Cc1ccc(OC(F)(F)F)cc1)Nc1nccs1` [Example 69, N-Thiazol-2-yl-3-[3-(4-trifluoromethoxy-benzyl)-3H-imidazo[4,5-b]pyridin-2-yl]-propionamide], the IC50 [2] is reported as 214 nM.
Compound `Cc1ccc2nc(CCC(=O)N[C@@H](C)c3ccc(F)cc3)n(Cc3ccc(F)cc3)c2n1` [Example 121, 3-[3-(4-fluoro-benzyl)-5-methyl-3H-imidazo[4,5-b]pyridin-2-yl]-N—[(S)-1-(4-fluoro-phenyl)-ethyl]-propionamide] has an IC50 [2] of 269 nM.
In the case of `C[C@H](NC(=O)CCc1nc2cccnc2n1Cc1ccc(F)c(F)c1)c1ccc(Br)cc1` [Example 17, N-[(S)-1-(4-Bromo-phenyl)-ethyl]-3-[3-(3,4-difluoro-benzyl)-3H-imidazo[4,5-b]pyridin-2-yl]-propionamide], the IC50 [2] is reported as 3 nM.
In the case of `O=C(CCc1nc2cccnc2n1Cc1ccc(F)c(F)c1)NCc1ccccn1` [Example 75, 3-[3-(3,4-Difluoro-benzyl)-3H-imidazo[4,5-b]pyridin-2-yl]-N-pyridin-2-ylmethyl-propionamide], the IC50 [2] is reported as 424 nM.
With `O=C(CCc1nc2cccnc2n1Cc1ccccc1OC(F)(F)F)NCc1ccc(OC(F)(F)F)cc1` [Example 120, N-(4-Trifluoromethoxy-benzyl)-3-[3-(2-trifluoromethoxy-benzyl)-3H-imidazo[4,5-b]pyridin-2-yl]-propionamide] the IC50 [2] was 292 nM.
Work on `COc1ccc(Cn2c(CCC(=O)N(C)[C@@H](C)c3ccccc3)nc3cccnc32)cc1` [Example 104, 3-[3-(4-Methoxy-benzyl)-3H-imidazo[4,5-b]pyridin-2-yl]-N-methyl-N-((S)-1-phenyl-ethyl)-propionamide] yielded an IC50 [2] of 69 nM.
